Assay results: US20150297605A1, “METHODS FOR TREATING CANCER USING TOR KINASE INHIBITOR COMBINATION THERAPY” (Signal Pharmaceuticals, LLC, priority 2014, published 2015)

Tests used:
Type in all cases: cell-based
[1] = tested on: MDA-MB-453 breast cancer cell line; experiment: Anti-proliferation assay, synergy score, MDA-MB-453; conditions: in combination with Compound 1, 72 h, mean self cross score + 2σ 2.99
Protocol: (§1) Anti-Proliferation Assay. Cells were thawed from a liquid nitrogen preserved state. Once cells expanded and divided at their expected doubling times, screening began.
(§2) Cells were equilibrated in assay plates via centrifugation and placed in incubators attached to the Dosing Modules at 37° C. for twenty-four hours before treatment. […] These T zero (T0) plates were read using ultra-sensitive luminescence on Envision Plate Readers. Treated assay plates were incubated with compound (single compound or combination) for seventy-two hours. After seventy-two hours, platesweare developed for endpoint analysis using ATPLite. […] The calculation for synergy score is provided below.
(§3) Growth Inhibition (GI) was used as a measure of cell viability. The cell viability of vehicle was measured at the time of dosing (T0) and after seventy-two hours (T72). […] A GI 200% represents complete death of all cells in the culture well. Compounds reaching an activity plateau of GI 200% are considered cytotoxic. GI is calculated by applying the following test and equation: […]
(§4) where T is the signal measure for a test article, V is the vehicle-treated control measure, and V0 is the vehicle control measure at time zero. This formula is derived from the Growth Inhibition calculation used in the National Cancer Institute's NCI-60 high throughput screen.
(§5) Synergy Score Analysis. Synergy scores were determined using the Chalice Software (Zalicus Inc., Cambridge Mass.). […] The Synergy Score is calculated as: […]
(§6) The fractional inhibition for each component agent and combination point in the matrix was calculated relative to the median of all vehicle-treated control wells. […]
(§7) In order to objectively establish hit criteria for the combination screen analysis, twenty compounds were selected to be self-crossed across the seventeen cell line panel as a means to empirically determine a baseline additive, non-synergistic response. The identity of the twenty self-cross compounds was determined by selecting compounds with a variety of maximum response values and single agent dose response steepness.

[2] = tested on: HCC-1428 breast cancer cell line; experiment: Anti-proliferation assay, synergy score, HCC-1428; conditions: in combination with Compound 1, 72 h, mean self cross score + 2σ 3.22
Protocol: as §1, §2, §3, §4, §5, §6, §7

[3] = tested on: BT-474 breast cancer cell line; experiment: Anti-proliferation assay, synergy score, BT-474; conditions: in combination with Compound 1, 72 h, mean self cross score + 2σ 3.37
Protocol: as §1, §2, §3, §4, §5, §6, §7

[4] = tested on: HCC-1500 breast cancer cell line; experiment: Anti-proliferation assay, synergy score, HCC-1500; conditions: in combination with Compound 1, 72 h, mean self cross score + 2σ 4.17
Protocol: as §1, §2, §3, §4, §5, §6, §7

[5] = tested on: HCC-1937 breast cancer cell line; experiment: Anti-proliferation assay, synergy score, HCC-1937; conditions: in combination with Compound 1, 72 h, mean self cross score + 2σ 2.89
Protocol: as §1, §2, §3, §4, §5, §6, §7

[6] = tested on: BT-20 breast cancer cell line; experiment: Anti-proliferation assay, synergy score, BT-20; conditions: in combination with Compound 1, 72 h, mean self cross score + 2σ 3.23
Protocol: as §1, §2, §3, §4, §5, §6, §7

[7] = tested on: HCC-1806 breast cancer cell line; experiment: Anti-proliferation assay, synergy score, HCC-1806; conditions: in combination with Compound 1, 72 h, mean self cross score + 2σ 5.05
Protocol: as §1, §2, §3, §4, §5, §6, §7

[8] = tested on: MDA-MB-175-VII breast cancer cell line; experiment: Anti-proliferation assay, synergy score, MDA-MB-175-VII; conditions: in combination with Compound 1, 72 h, mean self cross score + 2σ 2.82
Protocol: as §1, §2, §3, §5, §6

[9] = tested on: HCC-1187 breast cancer cell line; experiment: Anti-proliferation assay, synergy score, HCC-1187; conditions: in combination with Compound 1, 72 h, mean self cross score + 2σ 4.80
Protocol: as §1, §2, §3, §4, §5, §6, §7

[10] = tested on: BT-549 breast cancer cell line; experiment: Anti-proliferation assay, synergy score, BT-549; conditions: in combination with Compound 1, 72 h, mean self cross score + 2σ 3.94
Protocol: as §1, §2, §3, §4, §5, §6, §7

[11] = tested on: 5637 (bladder cancer, romidepsin sensitive cell line); experiment: Anti-proliferation assay (CellTiter-Glo), Bliss independence model, 5637; conditions: combination treatment with Romidepsin, 5637 (S), 72 h, greater than 10% considered synergistic
Protocol: (§8) Anti-Proliferation Assay. […] Cells were thawed from a liquid nitrogen preserved state. Once cells were expanded and divided at their expected doubling times, screening began. Cells were seeded in their respective growth media in 96-well tissue culture treated plates at 2000 cells/well and placed in incubators at 37° C. the night before treatment. […] These T zero (T0) plates were read using luminescence on Spectramax Plate Readers. Treated assay plates were incubated with Compound for seventy-two hours. After seventy-two hours, plates were developed for endpoint analysis using CellTiter-Glo. The calculation for synergy score is provided below.
(§9) Growth Inhibition (GI) was used as a measure of cell viability. The cell viability of vehicle was measured at the time of dosing (T0) and after seventy-two hours (T72). A GI reading of 0% represents no growth inhibition—cells treated with compound and T72 vehicle signals are matched. A GI 100% represents complete growth inhibition—cells treated by compound and T0 vehicle signals are matched. […] A GI 200% represents complete death of all cells in the culture well. […] GI is calculated by applying the following test and equation: […]
(§10) We next compared the expected compound effect to the observed compound effect, and calculated the differences between the observed and the expected cell viability, expressed as % of control. […]

[12] = tested on: SKOV3 (ovarian cancer, romidepsin resistant cell line); experiment: Anti-proliferation assay (CellTiter-Glo), Bliss independence model, SKOV3; conditions: combination treatment with Romidepsin, SKOV3 (R), 72 h, greater than 10% considered synergistic
Protocol: as §8, §9, §10

[13] = tested on: 5637 and SKOV3 cancer cell lines; experiment: Anti-proliferation assay (CellTiter-Glo), Bliss independence model, overall conclusion; conditions: combination with romidepsin
Protocol: as §8, §9, §10

SMILES | Synergy Score [1] | Synergy Score [2] | Synergy Score [3] | Synergy Score [4] | Synergy Score [5] | Synergy Score [6] | Synergy Score [7] | Synergy Score [8] | Synergy Score [9] | Synergy Score [10] | differences between observed and expected cell viability (% of control) [11] [%] | differences between observed and expected cell viability (% of control) [12] [%] | combination effect (conclusion in words) [13]
O=C(/C=C/c1cccc(S(=O)(=O)Nc2ccccc2)c1)NO [Belinostat] | 14.80 | 7.23 | 6.88 | 4.58 | 14.50 | 9.26 | 11.40 | 3.21 | 4.60 | 9.09 | – | – | –
CCN1C(=O)CNc2ncc(-c3ccc(-c4nc[nH]n4)nc3C)nc21 [Compound 1, 1-ethyl-7-(2-methyl-6-(1H-1,2,4-triazol-3-yl)pyridin-3-yl)-3,4-dihydropyrazino[2,3-b]pyrazin-2(1H)-one] | – | – | – | – | – | – | – | – | – | – | 16 | 23 | –
CO[C@H]1CC[C@H](N2C(=O)CNc3ncc(-c4ccc(C(C)(C)O)nc4)nc32)CC1 [Compound 2, 7-(6-(2-hydroxypropan-2-yl)pyridin-3-yl)-1-((1r,4r)-4-methoxycyclohexyl)-3,4-dihydropyrazino-[2,3-b]pyrazin-2(1H)-one] | – | – | – | – | – | – | – | – | – | – | 19 | 27 | synergism was observed
Nc1ccccc1NC(=O)c1ccc(CNC(=O)OCc2cccnc2)cc1 [MS-275] | 14.60 | 1.65 | 7.79 | 2.18 | 9.75 | 5.84 | 10.00 | 6.71 | 7.64 | 11.80 | – | – | –
C/C=C1\NC(=O)[C@H]2CSSCC/C=C/[C@H](CC(=O)N[C@H](C(C)C)C(=O)N2)OC(=O)[C@H](C(C)C)NC1=O [Romidepsin, (1S,4S,7Z,10S,16E,21R)-7-ethylidene-4,21-bis(1-methylethyl)-2-oxa-12,13-dithia-5,8,20,23-tetrazabicyclo[8.7.6]tricos-16-ene-3,6,9,19,22-pentone] | 13.80 | 4.80 | 6.00 | 4.80 | 12.50 | 8.00 | 8.39 | – | 6.10 | 12.00 | – | – | –
